# According to BindingDB's records for doi:10.1016/0197-0186(94)90100-7 (Rowett Research Institute, 1994):
# Target: T1, Melatonin receptor (Oryctolagus cuniculus, UniProt Q9BE38)
# T1 sequence (Q9BE38 whole entry): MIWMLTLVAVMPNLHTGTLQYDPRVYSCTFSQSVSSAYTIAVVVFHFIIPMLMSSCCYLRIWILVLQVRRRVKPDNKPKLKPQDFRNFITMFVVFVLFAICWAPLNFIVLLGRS
row,Ki,Structure (SMILES)
1,74 nM,"COc1cc2c(CCNC(C)=O)c[nH]c2cc1O [melatonin, 6-Hydroxy]"
2,460 nM,"COc1cc2[nH]cc(CCNC(C)=O)c2cc1OC [melatonin, 6-Methoxy]"

# Continued, compound first:
row,Structure (SMILES),Ki
1,"CC(=O)NCCc1c[nH]c2ccc(O)cc12 [N-Acetyltryptamine,5-Hydroxy]",3000 nM
2,COc1ccc2[nH]cc(CCO)c2c1,> 10000 nM
3,CC(=O)NCCc1c[nH]c2ccccc12 [N-Acetyltryptamine],1600 nM
